The target of the test is T1, human RXFP1 (Homo sapiens, UniProt Q9HBX9).
T1 construct: expressed in transfected cells
T1 sequence (Q9HBX9 1-757): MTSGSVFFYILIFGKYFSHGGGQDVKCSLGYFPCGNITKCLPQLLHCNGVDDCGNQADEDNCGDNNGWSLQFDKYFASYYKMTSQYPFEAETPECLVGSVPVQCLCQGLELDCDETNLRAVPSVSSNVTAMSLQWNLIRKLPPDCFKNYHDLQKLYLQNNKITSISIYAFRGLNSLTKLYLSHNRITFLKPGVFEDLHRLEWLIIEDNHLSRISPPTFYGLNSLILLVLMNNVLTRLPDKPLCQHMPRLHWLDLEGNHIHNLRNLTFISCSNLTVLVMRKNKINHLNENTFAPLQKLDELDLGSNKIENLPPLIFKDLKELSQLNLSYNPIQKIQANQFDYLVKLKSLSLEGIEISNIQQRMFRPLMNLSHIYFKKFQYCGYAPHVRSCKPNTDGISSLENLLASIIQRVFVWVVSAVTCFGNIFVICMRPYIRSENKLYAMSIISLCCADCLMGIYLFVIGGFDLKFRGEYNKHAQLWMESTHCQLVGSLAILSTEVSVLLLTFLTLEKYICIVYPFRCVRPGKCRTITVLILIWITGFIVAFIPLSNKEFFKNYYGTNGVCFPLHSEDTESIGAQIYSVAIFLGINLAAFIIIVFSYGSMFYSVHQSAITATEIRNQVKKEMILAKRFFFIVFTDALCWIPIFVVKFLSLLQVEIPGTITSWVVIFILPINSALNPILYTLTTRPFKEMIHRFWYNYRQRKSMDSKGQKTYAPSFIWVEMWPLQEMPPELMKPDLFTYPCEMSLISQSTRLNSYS
The experiment in a line: RXFP1 cAMP assay (hRXFP1 HEK293 cAMP assay, HTRF). It is filed as cell-based. As to conditions: HEK293 cells stably expressing human RXFP1, 30 min at room temperature, read-out: cAMP hRXFP1 HEK293 Assay EC50. The procedure, abridged: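 Intracellular cAMP was read by HTRF, with potency fitted to a 4-parameter logistic curve. Compound exposure (0.010 nM–50 μM final, 2% DMSO) lasted 30 min at room temperature. Cells were hRXFP1-HEK293 at 1500 per well in IBMX-containing (0.5 mM) HEPES-buffered HBSS.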
Background: cAMP levels reflect the balance of adenylyl cyclase and phosphodiesterase activity.
`COc1ccc(C2=NOC3CC(C(O)C(F)(F)F)CC23)cc1C(=O)N[C@H]1[C@@H](C(=O)Nc2ccc(F)c(C(F)(F)F)c2)[C@H]2CC[C@@H]1/C2=C\C1CC1` (some centres unmarked) [compound 853]: the concentration giving a half-maximal response (EC50) (in general, the concentration that produces a half-maximal response) stood at 3.6 nM.

With `COc1ccc(C2=NO[C@H]3C[C@H](CO)CN23)cc1C(=O)N[C@H]1[C@@H](C(=O)Nc2ccc(F)c(C(F)(F)F)c2)[C@H]2CC[C@@H]1/C2=C\C1CC1` [compound 854], the EC50 stood at 3.9 nM.

Take `COc1ccc(C2=NOC3CC(C(C)O)CC23)cc1C(=O)N[C@H]1[C@@H](C(=O)Nc2ccc(F)c(C(F)(F)F)c2)[C@H]2CC[C@@H]1/C2=C\C1CC1` (some centres unmarked) [compound 855]: the EC50 came to 4.5 nM.

Consider `COc1ccc(C2=NOC3CC(C(O)C(F)(F)F)CC23)cc1C(=O)N[C@H]1[C@@H](C(=O)Nc2ccc(F)c(C(F)(F)F)c2)[C@H]2CC[C@@H]1/C2=C\C1CC1` (some centres unmarked) [compound 856], for which the half-maximal effective concentration (EC50) worked out at 4.7 nM.

Take `COc1ccc(C2=NO[C@@H]3[C@@H](O)CCN23)cc1C(=O)N[C@H]1[C@@H](C(=O)Nc2ccc(F)c(C(F)(F)F)c2)[C@H]2CC[C@@H]1/C2=C\C1CC1` [compound 857]: the EC50 was determined as 5 nM.

For the compound `COc1ccc(C2=NOC3CC(C)(O)CC23)cc1C(=O)N[C@H]1[C@@H](C(=O)Nc2ccc(F)c(C(F)(F)F)c2)[C@H]2CC[C@@H]1/C2=C\C1CC1` (some centres unmarked) [compound 858], the EC50 stood at 1.3 nM.

Regarding `COc1ccc(C2=NOC3CC(O)(C(F)(F)F)CC23)cc1C(=O)N[C@H]1[C@@H](C(=O)N[C@H](C)C2(C)CC2)[C@H]2CC[C@@H]1/C2=C\C1CC1` (some centres unmarked) [compound 859], the EC50 turned out to be 1.8 nM.

In the case of `COc1ccc(C2=NOC3CC(O)(C(F)(F)F)CC23)cc1C(=O)N[C@H]1[C@@H](C(=O)NCC(C)(C)C)[C@H]2CC[C@@H]1/C2=C\C1CC1` (some centres unmarked) [compound 862], the EC50 is 3.4 nM.

For `COc1ccc(C2=NOC3CC(O)(C(F)(F)F)CC23)cc1C(=O)N[C@H]1[C@@H](C(=O)Nc2ccc(F)c(C(F)(F)F)c2)[C@H]2CC[C@@H]1/C2=C\C1CC1` (some centres unmarked) [compound 864], the EC50 turned out to be 3.8 nM.

On to `COc1ccc(C2=NOC3CC(CF)CC23)cc1C(=O)N[C@H]1[C@@H](C(=O)Nc2ccc(F)c(C(F)(F)F)c2)[C@H]2CC[C@@H]1/C2=C\C1CC1` (some centres unmarked) [compound 866], for which the EC50 was determined as 4.8 nM.

For the compound `COc1ccc(C2=NOC3CC(OC)CC23)cc1C(=O)N[C@@H]1C2CCC(/C2=C/C2CC2)[C@@H]1C(=O)Nc1ccc(F)c(C(F)(F)F)c1` (some centres unmarked) [compound 867], the EC50 is 3.7 nM.

In the case of `COc1c(F)cc(C2=NOC3CC(O)CC23)cc1C(=O)N[C@H]1[C@@H](C(=O)Nc2ccc(F)c(C(F)(F)F)c2)[C@H]2CC[C@@H]1/C2=C\C1CCCC1` (some centres unmarked) [compound 868], the EC50 turned out to be 3.8 nM.

For the compound `COc1c(F)cc(C2=NOC3CC(CO)CC23)cc1C(=O)N[C@H]1[C@@H](C(=O)N[C@H](C)C2(C(F)(F)F)CC2)[C@H]2CC[C@@H]1/C2=C\C1CC1` (some centres unmarked) [compound 869], the EC50 came out at 1.4 nM.

As for `COc1c(F)cc(C2=NOC3CC(CO)CC23)cc1C(=O)N[C@H]1[C@@H](C(=O)N[C@H](C)C2(C)CC(F)(F)C2)[C@H]2CC[C@@H]1/C2=C\C1CC1` (some centres unmarked) [compound 870], the EC50 was found to be 2.2 nM.

Turning to `COc1ccc(-c2cnn3c2CC(O)CC3)cc1C(=O)N[C@H]1[C@@H](C(=O)N[C@@H](C)C2(C)CC2)[C@H]2CC[C@@H]1/C2=C\C1CC1` (some centres unmarked) [compound 871], the concentration for a half-maximal effect (EC50) was determined as 4.8 nM.

For the compound `COc1ccc(-c2cccc3c2CN(C(=O)C2CCC2)C3)cc1C(=O)N[C@@H]1C2CCC(/C2=C/C2CC2)[C@@H]1C(=O)Nc1ccc(F)c(C(F)(F)F)c1` (some centres unmarked) [compound 872], the EC50 came to 8 nM.

As for `COc1ccc(-c2cc(C(CC(=O)O)C(F)(F)F)ccc2F)cc1C(=O)N[C@H]1[C@@H](C(=O)Nc2ccc(F)c(C(F)(F)F)c2)[C@H]2CC[C@@H]1/C2=C\C1CC1` (some centres unmarked) [compound 873], the 50% effective concentration (EC50) came out at 3.3 nM.

Regarding `COc1ccc(-c2cc(C(COC(=O)Nc3ccccc3)C(F)(F)F)ccc2F)cc1C(=O)N[C@H]1[C@@H](C(=O)Nc2ccc(F)c(C(F)(F)F)c2)[C@H]2CC[C@@H]1/C2=C\C1CC1` (some centres unmarked) [compound 875], the half-maximal effective concentration (EC50) came to 1.8 nM.

Consider `COc1ccc(-c2cc(C(COC(=O)Nc3ccccc3)C(F)(F)F)ccc2F)cc1C(=O)N[C@H]1[C@@H](C(=O)Nc2ccc(F)c(C(F)(F)F)c2)[C@H]2CC[C@@H]1/C2=C\C1CC1` (some centres unmarked) [compound 876], for which the EC50 was 0.9 nM.

For the compound `COc1ccc(-c2cc(C(COC(=O)NC3CCC3)C(F)(F)F)ccc2F)cc1C(=O)N[C@H]1[C@@H](C(=O)Nc2ccc(F)c(C(F)(F)F)c2)[C@H]2CC[C@@H]1/C2=C\C1CC1` (some centres unmarked) [compound 878], the EC50 turned out to be 5.1 nM.

As for `COc1ccc(-c2cc(C(COC(=O)NC3CCC3)C(F)(F)F)ccc2F)cc1C(=O)N[C@H]1[C@@H](C(=O)Nc2ccc(F)c(C(F)(F)F)c2)[C@H]2CC[C@@H]1/C2=C\C1CC1` (some centres unmarked) [compound 879], the EC50 turned out to be 0.9 nM.

Regarding `COc1ccc(-c2cccc3c2ccn3C(=O)OC(C)(C)C)cc1C(=O)N[C@H]1[C@@H](C(=O)Nc2ccc(F)c(C(F)(F)F)c2)[C@H]2CC[C@@H]1/C2=C\C1CC1` [compound 880], the concentration for a half-maximal effect (EC50) is 1.6 nM.

Take `COC(=O)N1Cc2cccc(-c3ccc(OC)c(C(=O)N[C@@H]4C5CCC(/C5=C/C5CC5)[C@@H]4C(=O)Nc4ccc(F)c(C(F)(F)F)c4)c3)c2C1` (some centres unmarked) [compound 881]: the 50% effective concentration (EC50) amounted to 3.1 nM.

For `COc1ccc(-c2ccc(C(CC(=O)O)C(F)(F)F)cc2F)cc1C(=O)N[C@H]1[C@@H](C(=O)Nc2ccc(F)c(C(F)(F)F)c2)[C@H]2CC[C@@H]1/C2=C\C1CC1` (some centres unmarked) [compound 883], the 50% effective concentration (EC50) was found to be 2.5 nM.

With `COc1ccc(-c2ccc(C(CC(=O)O)C(F)(F)F)cc2F)cc1C(=O)N[C@H]1[C@@H](C(=O)Nc2ccc(F)c(C(F)(F)F)c2)[C@H]2CC[C@@H]1/C2=C\C1CC1` (some centres unmarked) [compound 884], the EC50 was determined as 1 nM.

As for `COc1ccc(-c2cccc3c2CN(C(=O)N(C)c2ccccc2)C3)cc1C(=O)N[C@H]1[C@@H](C(=O)Nc2ccc(F)c(C(F)(F)F)c2)[C@H]2CC[C@@H]1/C2=C\C1CC1` [compound 886], the EC50 turned out to be 2.7 nM.

For the compound `COc1ccc(-c2cc(C(C)CC(=O)O)ccc2F)cc1C(=O)N[C@H]1[C@@H](C(=O)Nc2ccc(F)c(C(F)(F)F)c2)[C@H]2CC[C@@H]1/C2=C\C1CC1` (some centres unmarked) [compound 887], the EC50 was 5.5 nM.

For the compound `COc1ccc(-c2cc(C(C)CC(=O)O)ccc2F)cc1C(=O)N[C@H]1[C@@H](C(=O)Nc2ccc(F)c(C(F)(F)F)c2)[C@H]2CC[C@@H]1/C2=C\C1CC1` (some centres unmarked) [compound 888], the 50% effective concentration (EC50) was 2.7 nM.

As to `COc1ccc(-c2cccc3c2CN(C(=O)C(C)(C)O)C3)cc1C(=O)N[C@@H]1C2CCC(/C2=C/C2CC2)[C@@H]1C(=O)Nc1ccc(F)c(C(F)(F)F)c1` (some centres unmarked) [compound 889], the EC50 was 8.5 nM.

Take `COc1ccc(-c2cccc3c2CC(=O)N3)cc1C(=O)N[C@H]1[C@@H](C(=O)Nc2ccc(F)c(C(F)(F)F)c2)[C@H]2CC[C@@H]1/C2=C\C1CC1` [compound 890]: the concentration giving a half-maximal response (EC50) came to 2.4 nM.

As to `COc1ccc(-c2ccc(C(CC(=O)O)C(F)(F)F)cc2F)cc1C(=O)N[C@H]1[C@@H](C(=O)Nc2ccc(F)c(C(F)(F)F)c2)[C@H]2CC[C@@H]1/C2=C\C1CCCC1` (some centres unmarked) [compound 891], the half-maximal effective concentration (EC50) was 3.7 nM.

As for `COc1ccc(-c2ccc(C(CC(=O)O)C(F)(F)F)cc2F)cc1C(=O)N[C@H]1[C@@H](C(=O)Nc2ccc(F)c(C(F)(F)F)c2)[C@H]2CC[C@@H]1/C2=C\C1CCCC1` (some centres unmarked) [compound 892], the EC50 is 9.9 nM.

For the origin of these results see US20250221966A1, “RXFP1 AGONISTS” (BRISTOL-MYERS SQUIBB COMPANY, priority 2021, published 2025).
